# Results taken from patent publication US20260274866A1, “PYRIDO[4,3-D]PYRIMIDINE DERIVATIVES AS MUTANT KRAS G12C INHIBITORS FOR THE TREATMENT OF CANCER” (Frontier Medicines Corporation, priority 2023, published 2026).
# Molecular target: T1, KRAS G12C (GMPPNP-loaded) and cRAF (Ras-binding domain) interaction (Homo sapiens, UniProt P01116, C118S/C51S/C80L/G12C)
# T1 construct: truncated version comprising amino acids 1-169
# Experiment: AlphaScreen inhibition of KRAS G12C and cRAF binding
# Type: biochemical
# Conditions: KRAS G12C preloaded with GTP analogue GMPPNP, 2 hours preincubation
# Protocol: The AlphaScreen technology was used to determine IC50s for compound inhibition of KRAS G12C (present as the Cys-light (C51S, C80L and C118S), truncated version comprising amino acids 1-169) and cRAF interaction. Compounds were diluted in 100% DMSO and each compound concentration was spotted at 200 nl/well onto low volume, white 384 well plates. The KRAS G12C contained a biotin-AviTag and the cRaf, as Ras-binding domain (amino acids 50-131, RBD), was GST-tagged. KRAS G12C was preloaded with the GTP analogue Guanosine 5′-[β,γ-imido]triphosphate (GMPPNP). The KRAS G12C was diluted in 25 mM Hepes, pH 7.4, 150 mM NaCl, 5 mM MgCl2, 0.01% TritonX-100 and 10 μM GMPPNP and added at 10 ul/well to compound-spotted plates resulting in a DMSO concentration of 2%. Plates were incubated for 2 hours. A mixture of RBD and the AlphaScreen streptavidin donor and glutathione acceptor beads diluted in 25 mM Hepes, pH 7.4, 150 mM NaCl, 5 mM MgCl2, 0.01% TritonX-100 and 2% DMSO was then added at 10 ul/well and incubated for 60-90 minutes before the samples were read for emission at 570 nm after excitation of the donor beads at 680 nm. All incubations were performed at room temperature. The final top compound concentration was 50 μM with 1:3 titrations for 10-point dose response curves. Final assay conditions were 0.5 nM KRAS G12C, 0.75 nM RBD and 5 ug/ml each of AlphaScreen donor and acceptor beads. IC50s were determined using nonlinear regression fit of [inhibitor] vs. response (4 parameters).
# A counter assay was also set up to rule out inhibitors of the AlphaScreen technology itself. Compound plates were incubated for 2 hours as above with buffer only. The AlphaScreen beads were added as above except biotin-AviTag-GST was substituted for the RBD. Samples were read and analyzed as above.
# T1 sequence (P01116 1-169 isoform P01116-2 G12C/C51S/C80L/C118S): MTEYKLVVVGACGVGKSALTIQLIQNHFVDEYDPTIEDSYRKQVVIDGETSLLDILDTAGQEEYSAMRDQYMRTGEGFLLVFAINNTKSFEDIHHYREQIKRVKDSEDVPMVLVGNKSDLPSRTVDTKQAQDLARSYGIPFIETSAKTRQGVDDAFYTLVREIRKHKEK
row,SMILES,IC50 [nM]
1,C[C@H](/C=C/C(=O)N1CC[C@@H](N(C)c2nc(OC[C@@]34CCCN3C[C@H](F)C4)nc3c(F)c(-c4cccc5cccc(Cl)c45)ncc23)C1)N(C)C [Compound 1],100 to 500
2,C[C@@H](/C=C/C(=O)N1CC[C@@H](N(C)c2nc(OC[C@@]34CCCN3C[C@H](F)C4)nc3c(F)c(-c4cccc5cccc(Cl)c45)ncc23)C1)N(C)C [Compound 2],< 10
3,CC(/C=C/C(=O)N1CCN(c2nc(OCC34CCCN3CCC4)nc3c2CCN(c2cccc4cccc(Cl)c24)C3)C[C@@H]1CC#N)N1CCOCC1 (stereo partly drawn) [Compound 3],10 to 100
4,C[C@H](/C=C/C(=O)N1CCN(c2nc(OCC34CCCN3CCC4)nc3c2CCN(c2cccc4cccc(Cl)c24)C3)C[C@@H]1CC#N)N(C)C [Compound 4],< 10
5,C[C@@H](/C=C/C(=O)N1CCN(c2nc(OCC34CCCN3CCC4)nc3c2CCN(c2cccc4cccc(Cl)c24)C3)C[C@@H]1CC#N)N(C)C [Compound 5],10 to 100
6,C[C@H](/C=C/C(=O)N1CC[C@@H](N(C)c2nc(OC[C@@]34CCCN3C[C@H](F)C4)nc3c(F)c(-c4cccc5ccc(F)c(Cl)c45)ncc23)C1)N(C)C [Compound 6],100 to 500
7,"C[C@H](/C=C/C(=O)N1CC[C@@H](N(C)c2nc(OC[C@@]34CCCN3C[C@H](F)C4)nc3c(F)c(-c4cccc5ccc(F)c(F)c45)ncc23)C1)N(C)C [Compound 7, (R,E)-1-((R)-3-((7-(7,8-difluoronaphthalen-1-yl)-8-fluoro-2-(((2R,7aS)-2-fluorotetrahydro-1H-pyrrolizin-7a(5H)-yl)methoxy)pyrido[4,3-d]pyrimidin-4-yl)(methyl)amino)pyrrolidin-1-yl)-4-(dimethylamino)pent-2-en-1-one]",100 to 500
8,C[C@@H](/C=C/C(=O)N1C[C@H](F)[C@@H](N(C)c2nc(OC[C@@]34CCCN3C[C@H](F)C4)nc3c(F)c(-c4cccc5cccc(Cl)c45)ncc23)C1)N(C)C [Compound 8],10 to 100
9,C[C@H](/C=C/C(=O)N1C[C@H](F)[C@@H](N(C)c2nc(OC[C@@]34CCCN3C[C@H](F)C4)nc3c(F)c(-c4cccc5cccc(Cl)c45)ncc23)C1)N(C)C [Compound 9],10 to 100
10,"C[C@@H](/C=C/C(=O)N1CC[C@@H](N(C)c2nc(OC[C@@]34CCCN3C[C@H](F)C4)nc3c(F)c(-c4cccc5ccc(F)c(F)c45)ncc23)C1)N(C)C [Compound 10, (S,E)-1-((R)-3-((7-(7,8-difluoronaphthalen-1-yl)-8-fluoro-2-(((2R,7aS)-2-fluorotetrahydro-1H-pyrrolizin-7a(5H)-yl)methoxy)pyrido[4,3-d]pyrimidin-4-yl)(methyl)amino)pyrrolidin-1-yl)-4-(dimethylamino)pent-2-en-1-one]",< 10
11,CC(/C=C/C(=O)N1CCN(c2nc(OC[C@@]34CCCN3C[C@H](F)C4)nc3c(F)c(-c4cccc5cccc(Cl)c45)ncc23)C[C@@H]1CC#N)N1CCOCC1 (stereo partly drawn) [Compound 11],10 to 100
12,C[C@H](/C=C/C(=O)N1CC[C@@H](N(C)c2nc(OC[C@@]34CCCN3C[C@H](F)C4)nc3c(F)c(-c4cccc5cccc(Cl)c45)ncc23)C1)N1CCC1 [Compound 12],10 to 100
13,CO[C@H]1CCN(C(C)/C=C/C(=O)N2CCN(c3nc(OC[C@@]45CCCN4C[C@H](F)C5)nc4c(F)c(-c5cccc6ccc(F)c(Cl)c56)ncc34)C[C@@H]2CC#N)C1 (stereo partly drawn) [Compound 13],< 10
14,CO[C@@H]1CCN(C(C)/C=C/C(=O)N2CCN(c3nc(OC[C@@]45CCCN4C[C@H](F)C5)nc4c(F)c(-c5cccc6ccc(F)c(Cl)c56)ncc34)C[C@@H]2CC#N)C1 (stereo partly drawn) [Compound 14],< 10
15,CC(/C=C/C(=O)N1CCN(c2nc(OC[C@@]34CCCN3C[C@H](F)C4)nc3c(F)c(-c4cccc5cccc(Cl)c45)ncc23)C[C@@H]1CC#N)N1C[C@@H]2C[C@H]1CO2 (stereo partly drawn) [Compound 15],10 to 100
16,CC(/C=C/C(=O)N1CCN(c2nc(OC[C@@]34CCCN3C[C@H](F)C4)nc3c(F)c(-c4cccc5cccc(Cl)c45)ncc23)C[C@@H]1CC#N)N1C[C@H]2C[C@@H]1CO2 (stereo partly drawn) [Compound 16],10 to 100
17,CC(/C=C/C(=O)N1CCN(c2nc(OC[C@@]34CCCN3C[C@H](F)C4)nc3c(F)c(-c4cccc5cccc(Cl)c45)ncc23)C[C@@H]1CC#N)N1[C@@H]2CC[C@H]1COC2 (stereo partly drawn) [Compound 17],< 10
18,C[C@@H](/C=C/C(=O)N1CC[C@@H](N(C)c2nc(OC[C@@]34CCCN3C[C@H](F)C4)nc3c(F)c(-c4cccc5ccc(F)c(Cl)c45)ncc23)C1)N(C)C [Compound 18],≥ 500
19,"CO[C@H]1CCN([C@@H](C)/C=C/C(=O)N2CCN(c3nc(OC[C@@]45CCCN4C[C@H](F)C5)nc4c(F)c(-c5cccc6ccc(F)c(Cl)c56)ncc34)C[C@@H]2CC#N)C1 [Compound 19, 2-((S)-4-(7-(8-chloro-7-fluoronaphthalen-1-yl)-8-fluoro-2-(((2R,7aS)-2-fluorotetrahydro-1H-pyrrolizin-7a(5H)-yl)methoxy)pyrido[4,3-d]pyrimidin-4-yl)-1-((S,E)-4-((S)-3-methoxypyrrolidin-1-yl)pent-2-enoyl)piperazin-2-yl)acetonitrile]",10 to 100
20,"CO[C@H]1CCN([C@H](C)/C=C/C(=O)N2CCN(c3nc(OC[C@@]45CCCN4C[C@H](F)C5)nc4c(F)c(-c5cccc6ccc(F)c(Cl)c56)ncc34)C[C@@H]2CC#N)C1 [Compound 20, 2-((S)-4-(7-(8-chloro-7-fluoronaphthalen-1-yl)-8-fluoro-2-(((2R,7aS)-2-fluorotetrahydro-1H-pyrrolizin-7a(5H)-yl)methoxy)pyrido[4,3-d]pyrimidin-4-yl)-1-((R,E)-4-((S)-3-methoxypyrrolidin-1-yl)pent-2-enoyl)piperazin-2-yl)acetonitrile]",< 10
21,C[C@H](/C=C/C(=O)N1CCN(c2nc(OCC34CCCN3CCC4)nc3c2CCN(c2cccc4cccc(Cl)c24)C3)C[C@@H]1CC#N)N1CCOCC1 [Compound 21],10 to 100
22,C[C@@H](/C=C/C(=O)N1CCN(c2nc(OCC34CCCN3CCC4)nc3c2CCN(c2cccc4cccc(Cl)c24)C3)C[C@@H]1CC#N)N1CCOCC1 [Compound 22],10 to 100
23,C[C@H](/C=C/C(=O)N1CCN(c2nc(OC[C@@]34CCCN3C[C@H](F)C4)nc3c(F)c(-c4cccc5cccc(Cl)c45)ncc23)C[C@@H]1CC#N)N1CCOCC1 [Compound 23],10 to 100
24,C[C@@H](/C=C/C(=O)N1CCN(c2nc(OC[C@@]34CCCN3C[C@H](F)C4)nc3c(F)c(-c4cccc5cccc(Cl)c45)ncc23)C[C@@H]1CC#N)N1CCOCC1 [Compound 24],10 to 100
25,C[C@H](/C=C/C(=O)N1CCN(c2nc(OC[C@@]34CCCN3C[C@H](F)C4)nc3c(F)c(-c4cccc5cccc(Cl)c45)ncc23)C[C@@H]1CC#N)N1C[C@H]2C[C@@H]1CO2 [Compound 25],10 to 100
26,C[C@@H](/C=C/C(=O)N1CCN(c2nc(OC[C@@]34CCCN3C[C@H](F)C4)nc3c(F)c(-c4cccc5cccc(Cl)c45)ncc23)C[C@@H]1CC#N)N1C[C@H]2C[C@@H]1CO2 [Compound 26],10 to 100
27,CC(/C=C/C(=O)N1CCN(c2nc(OC[C@@]34CCCN3C[C@H](F)C4)nc3c(F)c(-c4cccc5cccc(Cl)c45)ncc23)C[C@@H]1CC#N)N1C2COCC1C2 (stereo partly drawn) [Compound 27],10 to 100
28,CC(/C=C/C(=O)N1CCN(c2nc(OC[C@@]34CCCN3C[C@H](F)C4)nc3c(F)c(-c4cccc5cccc(Cl)c45)ncc23)C[C@@H]1CC#N)N1CC[C@H](F)C1 (stereo partly drawn) [Compound 28],10 to 100
29,"CC(/C=C/C(=O)N1CCN(c2nc(OC[C@@]34CCCN3C[C@H](F)C4)nc3c(F)c(-c4cccc5cccc(Cl)c45)ncc23)C[C@@H]1CC#N)N1CC[C@@H](F)C1 (stereo partly drawn) [Compound 29, 2-((2S)-4-(7-(8-chloronaphthalen-1-yl)-8-fluoro-2-(((2R,7aS)-2-fluorotetrahydro-1H-pyrrolizin-7a(5H)-yl)methoxy)pyrido[4,3-d]pyrimidin-4-yl)-1-((E)-4-((R)-3-fluoropyrrolidin-1-yl)pent-2-enoyl)piperazin-2-yl)acetonitrile]",< 10
30,"C[C@H](/C=C/C(=O)N1CCN(c2nc(OC[C@@]34CCCN3C[C@H](F)C4)nc3c(F)c(-c4cccc5cccc(Cl)c45)ncc23)C[C@@H]1CC#N)N1[C@@H]2CC[C@H]1COC2 [Compound 30, 2-((S)-1-((R,E)-4-((1R,5S)-3-oxa-8-azabicyclo[3.2.1]octan-8-yl)pent-2-enoyl)-4-(7-(8-chloronaphthalen-1-yl)-8-fluoro-2-(((2R,7aS)-2-fluorotetrahydro-1H-pyrrolizin-7a(5H)-yl)methoxy)pyrido[4,3-d]pyrimidin-4-yl)piperazin-2-yl)acetonitrile]",10 to 100
